Literature values, collected in PMC10799843 (Molecular pharmaceutics, 2023).

Tested on: denatured collagen
Conditions: control scrambled peptide

Q: For “Cy5.5-KGGG-OfGGOfGfGfOfOGOfGOOfGGOOffG [^SCHP]”, which Collagen binding affinity is on record?
A: The Collagen binding affinity was “lacking in collagen binding affinity”.
